According to patent US20230114357A1, “CONTINUOUS MELT-COATING OF ACTIVE PHARMACEUTICAL INGREDIENTS USING SURFACTANTS FOR DISSOLUTION ENHANCEMENT” (Rutgers,The State University of New Jersey, priority 2020, published 2023):
In brackets after ≈: the same amount, converted by molar mass.

Tests used:
[1] = Powder bulk density of ibuprofen / 10% P407 powders; format: physicochemical; settings: ibuprofen combined with 10% Poloxamer 407, not subjected to heat and shear
Protocol: The screw configurations are shown below, where “C” represents conveying elements and “K” represents kneading elements: For each experiment, mean residence time, powder temperature, and powder bulk density were measured.

[2] = Dissolution testing of ibuprofen/poloxamer powders (USP paddle method); format: physicochemical; settings: 12 mg powder, 75 rpm, 900 ml 0.02 M hydrochloric acid pH 1.8; Ibuprofen 1, 2, 3; FIGS. 2-4
Protocol: For each test, 12 mg of powder was added to a dissolution vessel, and dissolution was conducted using the USP paddle method at 75 rpm in 900 ml of a buffer medium comprising 0.02 M hydrochloric acid and having a pH of 1.8.

[3] = Dissolution testing of ibuprofen/polyoxyethylene stearate powders (USP paddle method); format: physicochemical; settings: 12 mg powder, Ibuprofen 2, 10% polyoxyethylene stearate, 75 rpm, 900 ml 0.02 M hydrochloric acid pH 1.8; FIG. 6
Protocol: In each test, 12 mg of powder was added to a dissolution vessel, and dissolution was conducted using the USP paddle method at 75 rpm in 900 ml of a buffer medium comprising 0.02 M hydrochloric acid and having a pH of 1.8.

[4] = physchem; settings: pH 1.8, simulated gastric fluid
[5] = 50 mg powder, 10% cetylpyridinium chloride, 100 rpm, 900 ml deionized water; FIG. 7

SMILES: CC(C)Cc1ccc(C(C)C(=O)O)cc1 (stereo not shown) [Ibuprofen 1, ibuprofen]
- Powder Bulk Density of 10% P407 Physical Mix [1]: 0.320 g/ml

SMILES: CC(C)Cc1ccc(C(C)C(=O)O)cc1 (stereo not shown) [Uncoated ibuprofen, ibuprofen]
- dissolution rate (percentage of ibuprofen released over time) [2]: slowest dissolution rate
- dissolution rate (percentage of ibuprofen released over time) [3]: poorest dissolution rate
- solubility [4]: 53 µg/mL (≈ 257 µM)

SMILES: NC(=O)N1c2ccccc2C=Cc2ccccc21 [Uncoated carbamazepine, carbamazepine]
- dissolution rate (percentage of carbamazepine released over time) [5]: poorest dissolution rate

SMILES: CC(C)Cc1ccc(C(C)C(=O)O)cc1 (stereo not shown) [Ibuprofen 2, ibuprofen]
- Powder Bulk Density of 10% P407 Physical Mix [1]: 0.374 g/ml

SMILES: CC(C)Cc1ccc(C(C)C(=O)O)cc1 (stereo not shown) [Ibuprofen 3, ibuprofen]
- Powder Bulk Density of 10% P407 Physical Mix [1]: 0.382 g/ml
